Consider 34 molecules from patent publication US9951065B2 (Gilead Sciences, Inc., priority 2015, dated 2018).

The target in the test is T1, IDO1 (Homo sapiens, UniProt P14902).
T1 construct: HeLa cells were treated with a test compound in the presence of IFNγ, which induces IDO1 expression; host or cells: H1-HeLa cells, IDO1 induced with IFNγ
T1 sequence (P14902 whole entry): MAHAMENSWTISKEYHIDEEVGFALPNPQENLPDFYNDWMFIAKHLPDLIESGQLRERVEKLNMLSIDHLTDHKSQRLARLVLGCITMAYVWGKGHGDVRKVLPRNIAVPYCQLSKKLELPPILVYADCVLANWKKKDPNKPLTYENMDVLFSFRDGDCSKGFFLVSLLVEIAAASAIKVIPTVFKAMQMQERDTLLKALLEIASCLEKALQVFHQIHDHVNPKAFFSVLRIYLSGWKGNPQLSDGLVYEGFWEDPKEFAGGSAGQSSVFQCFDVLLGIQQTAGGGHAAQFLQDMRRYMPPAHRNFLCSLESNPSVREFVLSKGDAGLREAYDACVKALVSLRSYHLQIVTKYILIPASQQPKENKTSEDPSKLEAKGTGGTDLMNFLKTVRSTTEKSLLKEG
In words: Cell-based (HeLa) assay for measurement of IDO1 inhibition (kynurenine levels in supernatant after IFNγ induction). As to conditions: HeLa cells, IFNγ-induced IDO1, kynurenine in supernatant after 48 hour incubation; geometric mean of a minimum of four determinations. In a few lines: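 HeLa cells, 1,250 per well, treated with compound (0.5% DMSO final) plus IFNγ to induce IDO1, for 48 h. Supernatant kynurenine measured by TCA hydrolysis at 60 °C, then p-dimethylaminobenzaldehyde, absorbance 480 nm. EC50 from a four-parameter fit normalized to −/+IFNγ controls; geometric mean of at least four runs.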
The term EC50 denotes the concentration at which the effect is half-maximal. `C#Cc1cccc(N/C(=N\O)c2ccnc3nc[nH]c23)c1` [Example 95, N-(3-ethynylphenyl)-N′-hydroxy-1H-imidazo[4,5-b]pyridine-7-carboximidamide] gave an EC50 of 302 nM.
The same measure for `CCc1cccc(N/C(=N\O)c2ccnc3nc[nH]c23)c1` [Example 96, N-(3-Ethylphenyl)-N′-hydroxy-1H-imidazo[4,5-b]pyridine-7-carboximidamide]: 803 nM; for `C#Cc1cc(N/C(=N\O)c2ccnc3nc[nH]c23)ccc1F` [Example 97, N-(3-ethynyl-4-fluorophenyl)-N′-hydroxy-1H-imidazo[4,5-b]pyridine-7-carboximidamide]: 380 nM.
`O/N=C(\Nc1cccc(C(F)F)c1)c1ccnc2nc[nH]c12` [Example 98, N-(3-(difluoromethyl)phenyl)-N′-hydroxy-1H-imidazo[4,5-b]pyridine-7-carboximidamide] gave an EC50 of 550 nM.
The same measure for `O/N=C(\Nc1cccc(OC(F)(F)F)c1)c1ccnc2nc[nH]c12` [Example 99, N′-Hydroxy-N-(3-(trifluoromethoxy)phenyl)-1H-imidazo[4,5-b]pyridine-7-carboximidamide]: 602 nM.
The molecule `O/N=C(\Nc1ccccc1)c1ccnc2nc[nH]c12` [Example 100, N′-hydroxy-N-phenyl-1H-imidazo[4,5-b]pyridine-7-carboximidamide] yielded a half-maximal effective concentration (EC50) of 770 nM.
The molecule `O/N=C(\Nc1ccc(F)c(OC(F)(F)F)c1)c1ccnc2nc[nH]c12` [Example 101, N-(4-Fluoro-3-(trifluoromethoxy)phenyl)-N′-hydroxy-1H-imidazo[4,5-b]pyridine-7-carboximidamide] yielded a half-maximal effective concentration (EC50) of 845 nM.
The same measure for `O/N=C(\Nc1ccc2ccccc2c1)c1ccnc2nc[nH]c12` [Example 102, N′-hydroxy-N-(naphthalen-2-yl)-1H-imidazo[4,5-b]pyridine-7-carboximidamide]: 1930 nM; for `O/N=C(\Nc1cc2ccccc2cc1Cl)c1ccnc2nc[nH]c12` [Example 103, N-(3-Chloronaphthalen-2-yl)-N′-hydroxy-1H-imidazo[4,5-b]pyridine-7-carboximidamide]: 8070 nM.
The molecule `O/N=C(\Nc1cccc2ccccc12)c1ccnc2nc[nH]c12` [Example 104, N′-hydroxy-N-(naphthalen-1-yl)-1H-imidazo[4,5-b]pyridine-7-carboximidamide] registered an EC50 of 1970 nM.
As for `O/N=C(\Nc1ccc(Cl)c2ccccc12)c1ccnc2nc[nH]c12` [Example 105, N-(4-Chloronaphthalen-1-yl)-N′-hydroxy-1H-imidazo[4,5-b]pyridine-7-carboximidamide], the figure is 3030 nM; as for `COc1cc(N/C(=N\O)c2ccnc3nc[nH]c23)ccc1F` [Example 106, N-(4-Fluoro-3-methoxyphenyl)-N′-hydroxy-1H-imidazo[4,5-b]pyridine-7-carboximidamide], 5540 nM; as for `Cc1nc2nccc(/C(=N/O)Nc3ccc(F)c(Cl)c3)c2[nH]1` [Example 107, N-(3-Chloro-4-fluorophenyl)-N′-hydroxy-2-methyl-1H-imidazo[4,5-b]pyridine-7-carboximidamide], 1920 nM.
The same measure for `CCc1nc2nccc(/C(=N/O)Nc3ccc(F)c(Cl)c3)c2[nH]1` [Example 108, N-(3-Chloro-4-fluorophenyl)-2-ethyl-N′-hydroxy-1H-imidazo[4,5-b]pyridine-7-carboximidamide]: 3190 nM; for `O/N=C(\Nc1ccc(F)c(Cl)c1)c1ccnc2nc(C3CC3)[nH]c12` [Example 109, N-(3-Chloro-4-fluorophenyl)-2-cyclopropyl-N′-hydroxy-1H-imidazo[4,5-b]pyridine-7-carboximidamide]: 1390 nM.
The same measure for `COCc1nc2nccc(/C(=N/O)Nc3ccc(F)c(Cl)c3)c2[nH]1` [Example 110, N-(3-Chloro-4-fluorophenyl)-N′-hydroxy-2-(methoxymethyl)-1H-imidazo[4,5-b]pyridine-7-carboximidamide]: 2320 nM; for `O=c1onc(-c2ccnc3nc(CO)[nH]c23)n1-c1ccc(F)c(Cl)c1` [Example 111, 4-(3-Chloro-4-fluorophenyl)-3-(2-(hydroxymethyl)-1H-imidazo[4,5-b]pyridin-7-yl)-1,2,4-oxadiazol-5(4H)-one]: 4450 nM.
On to `O/N=C(\Nc1ccc(F)c(Cl)c1)c1ccnc2nc(CN3CCOCC3)[nH]c12` [Example 112, N-(3-Chloro-4-fluorophenyl)-N′-hydroxy-2-(morpholinomethyl)-1H-imidazo[4,5-b]pyridine-7-carboximidamide], for which the EC50 is 9530 nM.
As for `CN(C)Cc1nc2nccc(/C(=N/O)Nc3ccc(F)c(Cl)c3)c2[nH]1` [Example 113, N-(3-Chloro-4-fluorophenyl)-2-((dimethylamino)methyl)-N′-hydroxy-1H-imidazo[4,5-b]pyridine-7-carboximidamide], the figure is 1840 nM; as for `CCNCc1nc2nccc(/C(=N/O)Nc3ccc(F)c(Cl)c3)c2[nH]1` [Example 114, N-(3-Chloro-4-fluorophenyl)-2-((ethylamino)methyl)-N′-hydroxy-1H-imidazo[4,5-b]pyridine-7-carboximidamide], 927 nM; as for `O/N=C(\Nc1ccc(F)c(Cl)c1)c1ccnc2nc(CNCc3ccccc3)[nH]c12` [Example 115, 2-((Benzylamino)methyl)-N-(3-chloro-4-fluorophenyl)-N′-hydroxy-1H-imidazo[4,5-b]pyridine-7-carboximidamide], 1760 nM.
`CC(C)NCc1nc2nccc(/C(=N/O)Nc3ccc(F)c(Cl)c3)c2[nH]1` [Example 116, N-(3-Chloro-4-fluorophenyl)-N′-hydroxy-2-((isopropylamino)methyl)-1H-imidazo[4,5-b]pyridine-7-carboximidamide]: a half-maximal response (EC50) required 740 nM.
As for `O/N=C(\Nc1ccc(F)c(Cl)c1)c1ccnc2nc(CNCC3CC3)[nH]c12` [Example 117, N-(3-Chloro-4-fluorophenyl)-2-(((cyclopropylmethyl)amino)methyl)-N′-hydroxy-1H-imidazo[4,5-b]pyridine-7-carboximidamide], the figure is 765 nM.
`O/N=C(\Nc1ccc(F)c(Cl)c1)c1ccnc2nc(CNCC(F)(F)F)[nH]c12` [Example 118, N-(3-Chloro-4-fluorophenyl)-N′-hydroxy-2-(((2,2,2-trifluoroethyl)amino)methyl)-1H-imidazo[4,5-b]pyridine-7-carboximidamide] yielded an EC50 of 4640 nM.
As for `O/N=C(\Nc1ccc(F)c(Cl)c1)c1ccnc2nc(CNC3CC3)[nH]c12` [Example 119, N-(3-Chloro-4-fluorophenyl)-2-((cyclopropylamino)methyl)-N′-hydroxy-1H-imidazo[4,5-b]pyridine-7-carboximidamide], the figure is 2150 nM; as for `COCCCNCc1nc2nccc(/C(=N/O)Nc3ccc(F)c(Cl)c3)c2[nH]1` [Example 120, N-(3-Chloro-4-fluorophenyl)-N′-hydroxy-2-(((3-methoxypropyl)amino)methyl)-1H-imidazo[4,5-b]pyridine-7-carboximidamide], 1330 nM.
As for `O/N=C(\Nc1ccc(F)c(Cl)c1)c1ccnc2nc(CNCc3ccccn3)[nH]c12` [Example 121, N-(3-Chloro-4-fluorophenyl)-N′-hydroxy-2-(((pyridin-2-ylmethyl)amino)methyl)-1H-imidazo[4,5-b]pyridine-7-carboximidamide], the figure is 1370 nM; as for `COCCCN(C)Cc1nc2nccc(/C(=N/O)Nc3ccc(F)c(Cl)c3)c2[nH]1` [Example 122, N-(3-Chloro-4-fluorophenyl)-N′-hydroxy-2-(((3-methoxypropyl)(methyl)amino)methyl)-1H-imidazo[4,5-b]pyridine-7-carboximidamide], 1880 nM.
As for `COc1ccccc1CNCc1nc2nccc(/C(=N/O)Nc3ccc(F)c(Cl)c3)c2[nH]1` [Example 123, N-(3-Chloro-4-fluorophenyl)-N′-hydroxy-2-(((2-methoxybenzyl)amino)methyl)-1H-imidazo[4,5-b]pyridine-7-carboximidamide], the figure is 1910 nM; as for `COCCNCc1nc2nccc(/C(=N/O)Nc3ccc(F)c(Cl)c3)c2[nH]1` [Example 124, N-(3-Chloro-4-fluorophenyl)-N′-hydroxy-2-(((2-methoxyethyl)amino)methyl)-1H-imidazo[4,5-b]pyridine-7-carboximidamide], 2060 nM; as for `O/N=C(\Nc1ccc(F)c(Cl)c1)c1ccnc2nc(CNCCc3ccccn3)[nH]c12` [Example 125, N-(3-Chloro-4-fluorophenyl)-N′-hydroxy-2-(((2-(pyridin-2-yl)ethyl)amino)methyl)-1H-imidazo[4,5-b]pyridine-7-carboximidamide], 2080 nM.
In turn, `O/N=C(\Nc1ccc(F)c(Cl)c1)c1ccnc2nc(CNCc3cccnc3)[nH]c12` [Example 126, N-(3-Chloro-4-fluorophenyl)-N′-hydroxy-2-(((pyridin-3-ylmethyl)amino)methyl)-1H-imidazo[4,5-b]pyridine-7-carboximidamide] returned an EC50 of 2280 nM.
Turning to `O/N=C(\Nc1ccc(F)c(Cl)c1)c1ccnc2nc(CNCC3CCCCO3)[nH]c12` (stereo not shown) [Example 127, N-(3-Chloro-4-fluorophenyl)-N′-hydroxy-2-((((tetrahydro-2H-pyran-2-yl)methyl)amino)methyl)-1H-imidazo[4,5-b]pyridine-7-carboximidamide], the EC50 worked out at 2360 nM.
Take `O/N=C(\Nc1ccc(F)c(Cl)c1)c1ccnc2nc(CNc3ccccc3)[nH]c12` [Example 128, N-(3-Chloro-4-fluorophenyl)-N′-hydroxy-2-((phenylamino)methyl)-1H-imidazo[4,5-b]pyridine-7-carboximidamide]: the concentration giving a half-maximal response (EC50) stood at 2400 nM.
